Legend:
Assay type in all cases: cell-based
NCI-H23 = experiment: Anti-proliferation assay (CellTiter-Glo 2.0), combination index, NCI-H23
Protocol: (§1) Cell lines were obtained from ATCC or Health Science Research Resources Bank.
(§2) Each cell lines were collected by ordinary method, then suspended in indicated medium containing 10% fetal bovine serum in table 3. The number of cells seeded per well was set to 500 cells/20 μL. […] The concentration of each anti-cancer reagents set to 8 concentrations including 0 nM. After adding the medicine to the cells, the cells were further incubated at 37° C. for 3 days under 5% CO2. Cell survival rates were calculated by adding 20 μL of CellTiter-Glo(registered trademark) 2. 0 (Promega) solution to each well, incubating the cells at room temperature for 10 minutes, and then measuring the chemiluminescence intensity of each well using a plate reader (ARVO).
(§3) A combination index (CI) value at each combined concentration of the medicines was determined.

MV-4-11 = experiment: Anti-proliferation assay (CellTiter-Glo 2.0), combination index, MV-4-11
Protocol: as §1
(§4) 384 well culture plate (781086, Greiner Bio-One International) was used for cell survival rate measurement assay. Each cell lines were collected by ordinary method, then suspended in indicated medium containing 10% fetal bovine serum in table 3. The number of cells seeded per well was set to 500 cells/20 μL. After incubation at 37° C. for 24 hours under 5% CO2, Compound 1 and additional compound having an antitumor effect or a vehicle (DMSO) was added to each well by using D300e Digital Dispenser (Tecan). The concentration of Compound 1 was set to 10 concentrations. The concentration of each anti-cancer reagents set to 8 concentrations including 0 nM. After adding the medicine to the cells, the cells were further incubated at 37° C. for 3 days under 5% CO2. Cell survival rates were calculated by adding 20 μL of CellTiter-Glo(registered trademark) 2. 0 (Promega) solution to each well, incubating the cells at room temperature for 10 minutes, and then measuring the chemiluminescence intensity of each well using a plate reader (ARVO).
as §3

NCI-H358 = experiment: Anti-proliferation assay (CellTiter-Glo 2.0), combination index, NCI-H358
Method in brief: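 Cells were seeded at 500 cells/well in medium with 10% FBS and exposed to agents at 8 concentrations including 0 nM, for 3 days at 37° C under 5% CO2. Survival was read by CellTiter-Glo 2.0 luminescence, and combination index was determined at each combined concentration.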

MKN45 = experiment: Anti-proliferation assay (CellTiter-Glo 2.0), combination index, MKN45
Protocol: as §1, §2, §3

RMG-I = experiment: Anti-proliferation assay (CellTiter-Glo 2.0), combination index, RMG-I
Protocol: as §1, §4, §3

[1] = Compound 1 1110 + combination drug 3330 nmol/L (1:3)
[2] = Compound 1 3330 + combination drug 10000 nmol/L (1:3)
[3] = Compound 1 123 + combination drug 333 nmol/L (1:2.7)
[4] = Compound 1 370 + combination drug 1000 nmol/L (1:2.7)
[5] = Compound 1 4.57 + combination drug 1.37 nmol/L (1:0.3)
[6] = Compound 1 13.7 + combination drug 4.12 nmol/L (1:0.3)
[7] = Compound 1 41.2 + combination drug 12.3 nmol/L (1:0.3)
[8] = Compound 1 123 + combination drug 37.0 nmol/L (1:0.3)
[9] = Compound 1 370 + combination drug 111 nmol/L (1:0.3)
[10] = Compound 1 4.57 + combination drug 123 nmol/L (1:27)
[11] = Compound 1 13.7 + combination drug 370 nmol/L (1:27)
[12] = Compound 1 41.2 + combination drug 1110 nmol/L (1:27)
[13] = Compound 1 370 + combination drug 10000 nmol/L (1:27)
[14] = Compound 1 41.2 + combination drug 3330 nmol/L (1:81)
[15] = Compound 1 123 + combination drug 10000 nmol/L (1:81)
[16] = Compound 1 13.7 + combination drug 41.2 nmol/L (1:3)
[17] = Compound 1 41.2 + combination drug 123 nmol/L (1:3)
[18] = Compound 1 123 + combination drug 370 nmol/L (1:3)
[19] = Compound 1 370 + combination drug 1110 nmol/L (1:3)
[20] = Compound 1 13.7 + combination drug 123 nmol/L (1:9)
[21] = Compound 1 41.2 + combination drug 370 nmol/L (1:9)
[22] = Compound 1 123 + combination drug 1110 nmol/L (1:9)

C[C@@H](Oc1cc(-c2cnn(C3CCNCC3)c2)cnc1N)c1c(Cl)ccc(F)c1Cl [Crizotinib]
CI (NCI-H23; [1]): 0.939 | Fa (NCI-H23; [1]): 0.5445 | CI (NCI-H23; [2]): 0.765 | Fa (NCI-H23; [2]): 0.8672

CCc1nc(C(N)=O)c(Nc2ccc(N3CCC(N4CCN(C)CC4)CC3)c(OC)c2)nc1NC1CCOCC1 [Gilteritinib]
CI (NCI-H23; [3]): 0.540 | Fa (NCI-H23; [3]): 0.3005 | CI (NCI-H23; [4]): 0.666 | Fa (NCI-H23; [4]): 0.6542 | Description (combinatory effect by CI) (NCI-H23; Compound 1:combination drug molar ratio 1:2.7): Synergy (0.3-0.7) | CI (MV-4-11; [5]): 0.817 | Fa (MV-4-11; [5]): 0.5753 | CI (MV-4-11; [6]): 0.235 | Fa (MV-4-11; [6]): 0.8986 | CI (MV-4-11; [7]): 0.189 | Fa (MV-4-11; [7]): 0.9647 | CI (MV-4-11; [8]): 0.354 | Fa (MV-4-11; [8]): 0.9763 | CI (MV-4-11; [9]): 0.862 | Fa (MV-4-11; [9]): 0.9802

COC(=O)c1ccc2c(c1)NC(=O)/C2=C(\Nc1ccc(N(C)C(=O)CN2CCN(C)CC2)cc1)c1ccccc1 [Nintedanib]
CI (NCI-H358; [10]): 0.837 | Fa (NCI-H358; [10]): 0.0649 | CI (NCI-H358; [11]): 0.576 | Fa (NCI-H358; [11]): 0.1639 | CI (NCI-H358; [12]): 0.580 | Fa (NCI-H358; [12]): 0.3485 | CI (NCI-H358; [13]): 0.858 | Fa (NCI-H358; [13]): 0.9756 | Description (combinatory effect by CI) (NCI-H358; Compound 1:combination drug molar ratio 1:27): Synergy (0.3-0.7) | CI (MKN45; [14]): 0.925 | Fa (MKN45; [14]): 0.5044 | CI (MKN45; [15]): 0.418 | Fa (MKN45; [15]): 0.8817 | Description (combinatory effect by CI) (MKN45; Compound 1:combination drug molar ratio 1:81): Synergy (0.3-0.7) | CI (MV-4-11; [16]): 0.479 | Fa (MV-4-11; [16]): 0.7111 | CI (MV-4-11; [17]): 0.370 | Fa (MV-4-11; [17]): 0.9278 | CI (MV-4-11; [18]): 0.706 | Fa (MV-4-11; [18]): 0.9603 | CI (MV-4-11; [19]): 0.617 | Fa (MV-4-11; [19]): 0.9933 | CI (MV-4-11; [1]): 0.770 | Fa (MV-4-11; [1]): 0.9982 | Description (combinatory effect by CI) (MV-4-11; Compound 1:combination drug molar ratio 1:3): Synergy (0.3-0.7) | CI (RMG-I; [20]): 0.772 | Fa (RMG-I; [20]): 0.2678 | CI (RMG-I; [21]): 0.477 | Fa (RMG-I; [21]): 0.4576 | CI (RMG-I; [22]): 0.683 | Fa (RMG-I; [22]): 0.6821 | Description (combinatory effect by CI) (RMG-I; Compound 1:combination drug molar ratio 1:9): Synergy (0.3-0.7)

Reference: patent US20230146795A1, “ENHANCEMENT OF ANTI-TUMOR ACTIVITY OF SHP2 INHIBITOR PYRIMIDINONE IN COMBINATION WITH NOVEL CANCER MEDICINES IN CANCERS” (TAIHO PHARMACEUTICAL CO., LTD., priority 2020, published 2023)
